Laboratory results from paper PMC10970924 (Life, 2024).
Marks after values point to notes of the source that are not given here.

What was measured:
[1] = test system: porcine neuronal tubulin; test: Tubulin polymerization assay (Cytoskeleton kit); format: biochemical; details: effector 10 µM; for Maximum Initial Rate of Polymerization V Max: tubulin 3 mg/mL, 37 °C
Method: To assess the effect of the test compounds on tubulin polymerization, a test kit from Cytoskeleton was used. The plate was pre-warmed to 37 °C for 20 min before starting the assay. Then, 10 µL of the compound of interest, at a 10-fold concentration in an assay buffer, was pipetted into the plate. For comparison, paclitaxel, a polymerization enhancer, and vinblastine, a tubulin polymerization inhibitor, were used. Both effectors were used at a concentration of 10 µM. The assay buffer served as a control. The plate was then incubated at 37 °C for 2 min, after which 100 µL of the diluted tubulin solution (containing 3 mg/mL of tubulin in 80 mM PIPES pH 6.9, 2 mM MgCl2, 0.5 mM EGTA, 1 mM GTP, and 7% glycerol) was added. The plate was then immediately placed in the plate reader. Absorbance was measured at 340 nm every minute for 61 readings on a Varioskan LUX (Thermo Scientific, Waltham, MA, USA) plate reader.

[2] = Neutralization of the ABTS radical; details: for EC50: 37 °C, 15 min, 738 nm, read-out: EC50 of half-maximal ABTS radical inhibition; for Trolox Equivalent Antioxidant Capacity (TEAC): ABTS radical neutralization, relative to Trolox
Method: Initially, an ABTS solution was prepared in water at a concentration of 7 mM. Subsequently, the radical cation ABTS^•+ was generated by mixing the original ABTS solution with 2.45 mM ammonium persulfate at a 1:1 ratio. This mixture was then allowed to stand in the dark at room temperature for 12–16 h before use. The diluted ABTS^•+ solution was prepared in a methanol/water mixture (1:1) reaching an optical density of 0.7 units at 738 nm (~0.7 mM). Next, various concentrations of compounds (ranging from 1000, 500, 250, 125, 62.5, 31.2, 15.6, to 7.8 μM) in a volume of 130 µL in a methanol/water mixture (1:1) were mixed with the ABTS radical cation solution (~0.7 mM) in a volume of 130 µL. The mixture was then incubated at 37 °C in a water bath for 15 min. The optical density was measured at 738 nm using the Infinite M200 PRO (TECAN, Zürich, Switzerland) plate reader. The percentage inhibition of ABTS absorption relative to the control was calculated. A percent inhibition vs. antioxidant concentration graph was plotted and the concentration of the antioxidant that suppresses the optical density of the ABTS radical by 50% (EC50) was determined. The Trolox Equivalent Antioxidant Capacity (TEAC) was also calculated.

| SMILES | Maximum Initial Rate of Polymerization V Max [1] | EC50 [2] [µM] | Trolox Equivalent Antioxidant Capacity (TEAC) [2] | other results |
| --- | --- | --- | --- | --- |
| CC[C@]1(O)C[C@@H]2CN(CCc3c([nH]c4ccccc34)[C@@](C(=O)OC)(c3cc4c(cc3OC)N(C)[C@H]3[C@@](O)(C(=O)OC)[C@H](OC(C)=O)[C@]5(CC)C=CCN6CC[C@]43[C@@H]65)C2)C1 [Vinblastine, vinblastine] | 2.4 * mOD/Min |  |  | Inhibition of tubulin polymerization, fold [1]: 3; Maximum Initial Rate of Polymerization V Max ([1]; listed as vinblastine): 2.4 mOD/Min |
| CC(=O)O[C@H]1C(=O)[C@@]2(C)[C@H]([C@H](OC(=O)c3ccccc3)[C@]3(O)C[C@H](OC(=O)[C@H](O)[C@@H](NC(=O)c4ccccc4)c4ccccc4)C(C)=C1C3(C)C)[C@]1(OC(C)=O)CO[C@@H]1C[C@@H]2O [Paclitaxel, paclitaxel] | 8 * mOD/Min |  |  | Vmax, times higher than in the control reaction [1]: 1.2; Maximum Initial Rate of Polymerization V Max ([1]; listed as paclitaxel): 8.0 mOD/Min |
| Cc1c(C)c2c(c(C)c1O)CCC(C)(C(=O)O)O2 (stereo not drawn) [Trolox] |  | 15.7 ± 3.4 | 1.0 |  |
| O=C1O[C@H]([C@@H](O)CO)C(O)=C1O [Ascorbic acid] |  | 15.2 ± 4.8 | 1.03 |  |
| O=c1c(O)c(-c2ccc(O)c(O)c2)oc2cc(O)cc(O)c12 [Quercetin] |  | 3.2 ± 1.6 | 4.9 |  |
